Experimental data published in US20240158418A1 (C4 Therapeutics, Inc., priority 2021, published 2024).

Key:
[1] = target: T1, G1 to S Phase Transition 1 (GSPT1) (Homo sapiens, UniProt P15170); assay: GSPT1 degradation, HiBiT-tagged GSPT1 in 293T cells; assay type: cell-based; conditions: 6 hours, up to 10 WV
T1 construct: Endogenous expression of GSPT1 in 293T cells was determined by addition of N-terminal HiBiT tag; host or cells: 293T (CRISPR-Cas9 HiBiT knock-in)
Protocol: Endogenous expression of GSPT1 in 293T cells was determined by addition of N-terminal HiBiT tag to the 293T cell line (ATCC CRL-3216) using CRISPR-Cas9. Briefly, test compound was added to 384-well plates at a top concentration of 10 μM with 11 points, half log titration in duplicates. 293T cells expressing HiBiT-tagged GSPT1 were seeded into the 384-well plates in DMEM medium containing 10% FBS at a cell density of 6000 cells per well. Cells treated in the absence of the test compound were the negative control and wells containing media only were the positive control. Following compound treatment, cells were incubated at 37° C. with 5% CO2 for 6 hr. HiBiT signal was determined using Nano-Glo™ HiBiT Lytic Assay System (Promega, N3050) and luminescence was acquired on EnVision™ Multilabel Reader (PerkinElmer, Santa Clara, CA, USA). % GSPT1 remaining was determined by normalizing the signal with positive and negative controls on the same microtiter plate. Data in FIG. 8 are expressed as the mean±SD. Curve fit and IC50 determination was performed by 4 parametric regression analysis.

EGFR L858R = EGFR L858R (Homo sapiens, UniProt P00533, L858R); assay: KINOMEscan scanMAX, EGFR-L858R; assay type: binding; parameters: purchased Eurofins DiscoverX KINOMEscan scanMAX; host or cells: E. coli BL21-derived (T7 phage) or HEK-293; conditions: 100 nM
Protocol: Kinome-wide binding selectivity of CFT8919 was assessed via the KINOMEscan scanMAX assay at Eurofins DiscoverX (Freemont, CA, USA). Compound was tested at 100 nM against a diverse panel of 468 kinases. The size of circles was mapped onto the kinase phylogenetic tree utilizing DiscoverX TREEspot using <50% of % control as a cutoff.
For most assays, kinase-tagged T7 phage strains were grown in parallel in 24-well blocks in an E. coli host derived from the BL21 strain. E. coli were grown to log-phase and infected with T7 phage from a frozen stock (multiplicity of infection=0.4) and incubated with shaking at 32° C. until lysis (90-150 minutes). The lysates were centrifuged (6,000×g) and filtered (0.2 μm) to remove cell debris. The remaining kinases were produced in HEK-293 cells and subsequently tagged with DNA for qPCR detection. Streptavidin-coated magnetic beads were treated with biotinylated small molecule ligands for 30 minutes at room temperature to generate affinity resins for kinase assays. The liganded beads were blocked with excess biotin and washed with blocking buffer (SeaBlock (Pierce), 1% BSA, 0.05% Tween 20, 1 mM DTT) to remove unbound ligand and to reduce non-specific phage binding. […] Test compounds were prepared as 40× stocks in 100% DMSO and directly diluted into the assay. […] The kinase concentration in the eluates was measured by qPCR.

pERK = assay: Western blot NCI-H3255, Compound 1 with or without osimertinib: phospho-ERK; assay type: cell-based, human; conditions: NCI-H3255, six hours, 0-1,500 nM, presence and absence of 1,500 nM osimertinib
From the text: The compound bearing solutions were formulated to achieve a 0.1% final concentration of DMSO. […] Antibodies used in western blot were purchased from the following vendors: EGFR-L858R specific antibody (CST 3197), pY1068 EGFR (CST 2234), pERK (CST 4370), ERK (CST 4695), vinculin (Millipore 05-386).

[2] = target: T2, Sal-like protein 4 (SALL4) (Homo sapiens, UniProt Q9UJQ4); assay: SALL4 degradation, HiBiT-tagged SALL4 in KELLY cells; assay type: cell-based; conditions: 6 hours, up to 10 μM
T2 construct: Endogenous expression of SALL4 in KELLY cells was determined by addition of C-terminal HiBiT tag; host or cells: KELLY (CRISPR-Cas9 HiBiT knock-in)
Protocol: Specific studies were carried out to assess the ability of Compound 1 to degrade Sal-like protein 4 (SALL4), a protein implicated in the teratogenicity induced by the IMiD®s class of IKZF1/IKZF3 degraders including lenalidomide (Matyskiela et al., Crystal structure of the SALL4-pomalidomide-cereblon-DDB1 complex, Nature Structural and Molecular Biology, (2020) 27, 319-322). Endogenous expression of SALL4 in KELLY cells was determined by addition of C-terminal HiBiT tag to the KELLY cell line (DSMZ ACC355) using CRISPR-Cas9. Briefly, test compound was added to 384-well plates at a top concentration of 1 μM with 11 points, half log titration in duplicates. KELLY cells expressing HiBiT-tagged SALL4 were seeded into the 384-well plates in RPMI medium containing 10% FBS and 2 mM pyruvate at a cell density of 6000 cells per well. Cells treated in the absence of the test compound were the negative control and wells containing media only were the positive control. Following compound treatment, cells were incubated at 37° C. with 5% CO2 for 6 hr. HiBiT signal was determined using Nano-Glo™ HiBiT Lytic Assay System (Promega, N3050) and luminescence was acquired on EnVision™ Multilabel Reader (PerkinElmer, Santa Clara, CA, USA). % SALL4 remaining was determined by normalizing the signal with positive and negative controls on the same microtiter plate. Data in FIG. 7 are expressed as the mean±SD. […]

Chain of EGFR L858R (P00533 25-1210 L858R): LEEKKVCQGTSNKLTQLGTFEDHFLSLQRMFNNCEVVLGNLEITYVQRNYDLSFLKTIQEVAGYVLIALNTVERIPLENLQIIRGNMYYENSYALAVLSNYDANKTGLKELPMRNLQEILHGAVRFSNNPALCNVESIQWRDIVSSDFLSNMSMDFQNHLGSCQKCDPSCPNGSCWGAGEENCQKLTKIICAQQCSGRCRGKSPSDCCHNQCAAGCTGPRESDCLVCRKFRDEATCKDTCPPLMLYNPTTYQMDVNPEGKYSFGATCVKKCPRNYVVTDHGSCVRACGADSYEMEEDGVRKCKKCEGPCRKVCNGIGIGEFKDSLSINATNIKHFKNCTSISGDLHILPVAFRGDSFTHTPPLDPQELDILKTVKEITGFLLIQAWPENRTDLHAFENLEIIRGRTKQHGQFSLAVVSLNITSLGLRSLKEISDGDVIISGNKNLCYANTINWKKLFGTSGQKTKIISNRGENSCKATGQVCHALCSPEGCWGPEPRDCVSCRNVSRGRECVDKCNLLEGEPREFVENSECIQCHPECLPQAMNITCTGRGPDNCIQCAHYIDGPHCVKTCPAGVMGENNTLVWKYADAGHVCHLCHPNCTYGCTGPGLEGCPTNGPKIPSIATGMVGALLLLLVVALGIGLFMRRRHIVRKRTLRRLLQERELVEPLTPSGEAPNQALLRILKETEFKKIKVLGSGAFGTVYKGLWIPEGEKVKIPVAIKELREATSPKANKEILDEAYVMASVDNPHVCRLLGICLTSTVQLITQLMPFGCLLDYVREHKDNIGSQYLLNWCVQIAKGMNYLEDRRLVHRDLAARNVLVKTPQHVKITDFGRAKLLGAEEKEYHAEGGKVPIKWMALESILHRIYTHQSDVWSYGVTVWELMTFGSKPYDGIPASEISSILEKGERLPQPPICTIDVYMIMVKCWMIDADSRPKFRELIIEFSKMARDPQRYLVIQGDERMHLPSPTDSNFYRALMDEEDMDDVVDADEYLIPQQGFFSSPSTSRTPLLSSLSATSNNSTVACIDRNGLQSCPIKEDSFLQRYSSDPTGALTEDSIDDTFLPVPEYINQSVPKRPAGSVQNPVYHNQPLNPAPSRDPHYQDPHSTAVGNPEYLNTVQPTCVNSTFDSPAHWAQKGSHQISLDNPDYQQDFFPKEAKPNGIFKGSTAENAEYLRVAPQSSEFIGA
T2 sequence (Q96SW2 whole entry partner): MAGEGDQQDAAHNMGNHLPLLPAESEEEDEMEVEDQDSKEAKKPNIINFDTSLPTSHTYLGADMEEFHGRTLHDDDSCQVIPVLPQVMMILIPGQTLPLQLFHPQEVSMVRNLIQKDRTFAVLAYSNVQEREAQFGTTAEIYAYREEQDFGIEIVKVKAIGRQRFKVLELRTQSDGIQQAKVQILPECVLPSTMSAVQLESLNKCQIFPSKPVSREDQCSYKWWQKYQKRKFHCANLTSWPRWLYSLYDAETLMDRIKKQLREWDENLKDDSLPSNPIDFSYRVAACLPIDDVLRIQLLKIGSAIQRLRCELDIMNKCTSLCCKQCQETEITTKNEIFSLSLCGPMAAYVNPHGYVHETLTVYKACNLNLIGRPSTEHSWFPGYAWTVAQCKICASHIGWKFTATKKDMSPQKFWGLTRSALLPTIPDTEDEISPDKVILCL
T2 sequence (Q16531 whole entry partner): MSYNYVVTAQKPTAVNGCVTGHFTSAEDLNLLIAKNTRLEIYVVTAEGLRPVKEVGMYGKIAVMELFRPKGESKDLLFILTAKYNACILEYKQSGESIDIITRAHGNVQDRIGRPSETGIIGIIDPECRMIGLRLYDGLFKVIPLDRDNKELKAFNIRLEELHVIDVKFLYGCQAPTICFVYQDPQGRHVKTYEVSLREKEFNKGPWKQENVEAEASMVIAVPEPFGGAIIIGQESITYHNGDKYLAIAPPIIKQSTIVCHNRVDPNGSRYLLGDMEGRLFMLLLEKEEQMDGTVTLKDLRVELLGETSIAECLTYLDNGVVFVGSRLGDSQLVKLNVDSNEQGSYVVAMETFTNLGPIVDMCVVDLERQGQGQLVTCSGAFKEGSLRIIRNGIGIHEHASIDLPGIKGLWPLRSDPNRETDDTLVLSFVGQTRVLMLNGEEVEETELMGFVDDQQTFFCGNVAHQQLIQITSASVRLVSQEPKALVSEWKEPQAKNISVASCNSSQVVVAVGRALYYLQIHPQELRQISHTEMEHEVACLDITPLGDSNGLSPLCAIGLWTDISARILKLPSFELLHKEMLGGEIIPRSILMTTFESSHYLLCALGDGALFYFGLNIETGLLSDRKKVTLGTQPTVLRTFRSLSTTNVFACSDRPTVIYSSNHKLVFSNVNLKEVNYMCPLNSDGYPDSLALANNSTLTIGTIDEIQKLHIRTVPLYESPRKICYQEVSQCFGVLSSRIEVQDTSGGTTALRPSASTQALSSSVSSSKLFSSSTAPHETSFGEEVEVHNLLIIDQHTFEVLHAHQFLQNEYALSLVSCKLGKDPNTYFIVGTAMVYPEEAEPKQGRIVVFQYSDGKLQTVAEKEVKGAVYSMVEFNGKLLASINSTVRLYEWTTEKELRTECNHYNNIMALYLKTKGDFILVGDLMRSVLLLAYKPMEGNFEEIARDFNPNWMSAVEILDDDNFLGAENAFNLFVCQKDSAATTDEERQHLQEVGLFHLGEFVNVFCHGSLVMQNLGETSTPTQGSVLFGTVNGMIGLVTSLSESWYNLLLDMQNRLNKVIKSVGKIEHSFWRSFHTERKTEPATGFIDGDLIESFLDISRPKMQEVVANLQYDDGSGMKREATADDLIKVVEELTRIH
T2 sequence (Q9UJQ4 whole entry): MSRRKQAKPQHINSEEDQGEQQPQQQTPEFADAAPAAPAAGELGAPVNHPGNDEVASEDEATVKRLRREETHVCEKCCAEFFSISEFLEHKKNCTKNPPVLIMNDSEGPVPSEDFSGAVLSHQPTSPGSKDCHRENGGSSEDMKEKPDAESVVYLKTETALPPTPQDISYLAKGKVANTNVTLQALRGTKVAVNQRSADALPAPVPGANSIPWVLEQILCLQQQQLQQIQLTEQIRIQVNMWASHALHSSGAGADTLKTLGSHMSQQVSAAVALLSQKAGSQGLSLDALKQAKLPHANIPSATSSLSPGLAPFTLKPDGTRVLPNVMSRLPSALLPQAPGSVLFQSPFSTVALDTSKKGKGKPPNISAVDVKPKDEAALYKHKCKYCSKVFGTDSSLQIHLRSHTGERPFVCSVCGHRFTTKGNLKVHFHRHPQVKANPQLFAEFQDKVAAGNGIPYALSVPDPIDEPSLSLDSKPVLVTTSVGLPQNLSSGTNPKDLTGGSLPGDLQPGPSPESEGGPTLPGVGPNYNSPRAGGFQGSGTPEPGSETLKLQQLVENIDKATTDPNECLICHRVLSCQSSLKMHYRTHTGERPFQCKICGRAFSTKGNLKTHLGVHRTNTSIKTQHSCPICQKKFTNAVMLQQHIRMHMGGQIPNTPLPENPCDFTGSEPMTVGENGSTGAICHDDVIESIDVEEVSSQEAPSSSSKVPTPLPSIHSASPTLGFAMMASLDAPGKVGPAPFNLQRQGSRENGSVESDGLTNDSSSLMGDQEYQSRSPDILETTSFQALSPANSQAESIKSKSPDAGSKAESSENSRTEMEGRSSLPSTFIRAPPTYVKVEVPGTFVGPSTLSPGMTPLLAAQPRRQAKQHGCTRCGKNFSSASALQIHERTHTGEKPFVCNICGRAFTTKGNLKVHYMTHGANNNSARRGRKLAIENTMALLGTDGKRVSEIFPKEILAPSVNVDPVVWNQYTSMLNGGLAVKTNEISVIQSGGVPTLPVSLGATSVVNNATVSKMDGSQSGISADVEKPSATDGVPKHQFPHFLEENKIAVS
T1 sequence (Q96SW2 whole entry partner): as the sequence (Q96SW2 whole entry partner) above
T1 sequence (Q16531 whole entry partner): as the sequence (Q16531 whole entry partner) above
T1 sequence (P15170 whole entry): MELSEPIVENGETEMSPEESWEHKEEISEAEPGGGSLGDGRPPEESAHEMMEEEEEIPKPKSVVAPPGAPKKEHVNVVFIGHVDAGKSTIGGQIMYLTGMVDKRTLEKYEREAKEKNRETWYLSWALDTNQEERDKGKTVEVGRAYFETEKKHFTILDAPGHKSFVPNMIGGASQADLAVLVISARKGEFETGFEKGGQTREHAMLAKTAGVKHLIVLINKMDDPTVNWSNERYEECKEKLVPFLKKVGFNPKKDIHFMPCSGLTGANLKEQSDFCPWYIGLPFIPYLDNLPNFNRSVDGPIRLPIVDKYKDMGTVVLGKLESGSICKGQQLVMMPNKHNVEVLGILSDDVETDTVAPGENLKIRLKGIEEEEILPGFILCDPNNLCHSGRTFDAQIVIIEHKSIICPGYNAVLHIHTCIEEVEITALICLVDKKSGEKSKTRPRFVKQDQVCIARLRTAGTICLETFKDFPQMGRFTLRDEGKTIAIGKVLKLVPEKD

## O=C1CC[C@H](Nc2ccc(N3CCC(O)(CC(=O)N4CC5(C4)CN(c4ccc(-c6cc(F)c7c(c6)C(=O)N(C(C(=O)Nc6nccs6)c6ncn8c6CCC8)C7)cc4)C5)CC3)c(F)c2)C(=O)N1 (stereo partly drawn) [Compound 1, 2-(6,7-dihydro-5H-pyrrolo[1,2-c]imidazol-1-yl)-2-[6-[4-[2-[2-[1-[4-[[(3S)-2,6-dioxo-3-piperidyl]amino]-2-fluoro-phenyl]-4-hydroxy-4-piperidyl]acetyl]-2,6-diazaspiro[3.3]heptan-6-yl]phenyl]-4-fluoro-1-oxo-isoindolin-2-yl]-N-thiazol-2-yl-acetamide]
[1]
  GSPT1 degradation (% GSPT1 remaining): no significant effect
EGFR L858R
  percent binding remaining: < 50%
pERK
  phospho-ERK inhibition (western blot): inhibited
[2]
  SALL4 degradation (% SALL4 remaining): no effect
